Where two headings read alike, the source gives them in different places.
What was measured:
[1] = target: T1, MKK4 (Homo sapiens, UniProt P45985); experiment: KINOMEscan competition binding assay, MKK4; conditions: residual percent of control binding (PoC) at 100 nM
T1 construct: S84/D399; host or cells: HEK-293
T1 sequence (P45985 84-399): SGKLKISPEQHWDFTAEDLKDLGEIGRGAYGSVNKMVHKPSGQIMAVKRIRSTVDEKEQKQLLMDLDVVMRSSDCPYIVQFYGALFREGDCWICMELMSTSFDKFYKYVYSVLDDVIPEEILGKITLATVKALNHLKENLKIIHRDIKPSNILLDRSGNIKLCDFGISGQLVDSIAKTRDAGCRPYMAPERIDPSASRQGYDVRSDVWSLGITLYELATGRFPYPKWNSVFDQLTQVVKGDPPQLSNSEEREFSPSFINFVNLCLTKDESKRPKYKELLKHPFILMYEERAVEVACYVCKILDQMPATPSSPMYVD
Method in brief: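 Tested at 100 nM and reported as percent of control binding (PoC). MKK4 was produced in HEK-293 cells and DNA-tagged. Displacement from ligand-coated, blocked beads was read by qPCR of eluted kinase.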

[2] = target: T2, BRaf (Homo sapiens, UniProt P15056); experiment: KINOMEscan competition binding assay, BRaf; conditions: ratio PoC (off-target)/PoC (MKK4)
T2 construct: purchased ProQinase GmbH, Freiburg, Germany (33PanQinase Assay Service)
Method in brief: (§1)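 DNA-tagged kinases expressed in HEK-293 cells compete between immobilized ligand on blocked beads and test compound at 100 nM; kinase retained on beads quantified by qPCR of the tag.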

[3] = target: T3, MKK4 (Homo sapiens, UniProt P45985); experiment: 33PanQinase enzyme assay, MKK4; assay type: biochemical; conditions: for remaining activity at 0.1 µM: read-out: Potency MKK4 (residual activity, assay at single concentration)
T3 construct: purchased ProQinase GmbH, Freiburg, Germany (33PanQinase Assay Service)
T3 sequence (P45985 1-399): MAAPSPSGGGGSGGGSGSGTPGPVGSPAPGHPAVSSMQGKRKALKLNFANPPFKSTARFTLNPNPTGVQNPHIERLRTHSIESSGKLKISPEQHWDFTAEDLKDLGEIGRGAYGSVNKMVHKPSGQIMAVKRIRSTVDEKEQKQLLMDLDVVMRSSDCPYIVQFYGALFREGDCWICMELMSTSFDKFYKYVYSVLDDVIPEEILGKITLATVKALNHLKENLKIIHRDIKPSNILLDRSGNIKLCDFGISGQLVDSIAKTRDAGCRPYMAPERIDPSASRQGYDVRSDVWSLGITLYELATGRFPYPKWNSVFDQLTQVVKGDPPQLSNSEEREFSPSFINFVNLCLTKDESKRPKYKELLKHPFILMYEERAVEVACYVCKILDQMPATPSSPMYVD
Method in brief: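 Inhibition measured as 33Pi transfer to substrate after a 60-min, 30 °C reaction, acid-stopped and scintillation-counted.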

[4] = target: T4, MKK7 (Homo sapiens, UniProt O14733); experiment: KINOMEscan competition binding assay, MKK7; design: M1/R419; host or cells: HEK-293; conditions: ratio PoC (off-target)/PoC (MKK4)
T4 sequence (O14733 1-419): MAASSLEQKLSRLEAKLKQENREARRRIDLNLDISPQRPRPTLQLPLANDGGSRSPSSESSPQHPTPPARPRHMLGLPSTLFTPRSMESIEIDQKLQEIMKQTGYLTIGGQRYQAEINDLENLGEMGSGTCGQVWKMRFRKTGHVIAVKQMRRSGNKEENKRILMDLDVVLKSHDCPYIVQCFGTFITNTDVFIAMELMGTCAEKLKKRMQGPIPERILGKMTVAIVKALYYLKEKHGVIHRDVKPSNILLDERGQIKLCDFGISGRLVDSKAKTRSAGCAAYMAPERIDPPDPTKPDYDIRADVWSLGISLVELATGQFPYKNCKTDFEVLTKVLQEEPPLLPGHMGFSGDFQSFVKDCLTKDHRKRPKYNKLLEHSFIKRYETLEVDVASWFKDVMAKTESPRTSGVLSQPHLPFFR
Method in brief: as §1

[5] = target: JNK1 (Homo sapiens, UniProt P45983); experiment: KINOMEscan competition binding assay, JNK1; design: M1/Q384; host or cells: HEK-293; conditions: ratio PoC (off-target)/PoC (MKK4)
Method in brief: as §1

Sequence of JNK1 (P45983 1-384 isoform P45983-2): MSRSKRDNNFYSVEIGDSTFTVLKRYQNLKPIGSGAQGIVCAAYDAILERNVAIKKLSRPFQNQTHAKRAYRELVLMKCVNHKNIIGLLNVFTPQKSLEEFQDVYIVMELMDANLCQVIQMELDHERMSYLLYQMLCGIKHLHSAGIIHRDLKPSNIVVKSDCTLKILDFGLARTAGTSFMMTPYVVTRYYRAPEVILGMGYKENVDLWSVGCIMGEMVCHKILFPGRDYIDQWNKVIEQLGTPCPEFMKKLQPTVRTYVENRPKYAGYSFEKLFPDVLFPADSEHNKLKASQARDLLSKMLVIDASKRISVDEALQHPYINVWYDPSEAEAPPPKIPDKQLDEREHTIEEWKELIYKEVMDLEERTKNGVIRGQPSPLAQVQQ
T2 sequence (P15056 whole entry, species assumed): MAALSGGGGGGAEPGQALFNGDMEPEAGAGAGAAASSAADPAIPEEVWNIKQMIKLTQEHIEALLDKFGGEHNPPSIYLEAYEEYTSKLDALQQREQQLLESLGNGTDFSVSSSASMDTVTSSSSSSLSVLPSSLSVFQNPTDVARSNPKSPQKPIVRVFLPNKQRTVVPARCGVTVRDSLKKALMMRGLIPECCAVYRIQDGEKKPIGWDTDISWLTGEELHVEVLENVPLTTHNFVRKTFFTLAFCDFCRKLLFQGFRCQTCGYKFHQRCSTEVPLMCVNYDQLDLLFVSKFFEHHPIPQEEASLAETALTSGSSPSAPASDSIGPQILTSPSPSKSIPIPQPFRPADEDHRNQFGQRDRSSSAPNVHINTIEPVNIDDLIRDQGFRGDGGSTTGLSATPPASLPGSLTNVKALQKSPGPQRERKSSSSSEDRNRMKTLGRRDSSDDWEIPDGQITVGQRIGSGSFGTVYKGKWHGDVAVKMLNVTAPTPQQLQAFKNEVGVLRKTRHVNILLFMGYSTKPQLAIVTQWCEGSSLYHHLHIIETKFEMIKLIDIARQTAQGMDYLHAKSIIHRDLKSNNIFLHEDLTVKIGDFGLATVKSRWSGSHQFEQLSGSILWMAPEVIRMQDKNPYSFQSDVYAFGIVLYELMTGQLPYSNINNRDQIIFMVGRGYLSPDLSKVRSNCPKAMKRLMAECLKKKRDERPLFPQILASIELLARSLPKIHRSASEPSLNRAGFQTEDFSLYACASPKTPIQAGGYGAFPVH

SMILES	MKK4 [% Ctrl @ 100 nM [1]	selectivity based on % Ctrl @100 nM vs. Braf [2]	IC50 ([3]; assay 'IC50', read-out: Potency MKK4 (IC50)) [µM]	selectivity based on % Ctrl @100 nM vs. MKK7 [4]	selectivity based on % Ctrl @100 nM vs. JNK1 [5]	remaining activity at 0.1 µM [3] [%]	remaining activity at 0.1 µM ([3]; single concentration 100 nM) [%]
CCCS(=O)(=O)Nc1ccc(Br)c(C(=O)c2c[nH]c3ncc(-c4ccc(Cl)cc4)cc23)c1F [Example 60, N-(4-bromo-3-(5-(4-chlorophenyl)-1H-pyrrolo[2,3-b]pyridine-3-carbonyl)-2-fluorophenyl)propane-1-sulfonamide]	+ (3 ≤ PoC < 30)	++ (100 ≥ ratio > 10)	1 to 10	++ (100 ≥ ratio > 10)	++ (100 ≥ ratio > 10)	–	–
Cc1ccc(CS(=O)(=O)Nc2ccc(F)c(C(=O)c3c[nH]c4ncc(-c5ccc(Cl)cc5)cc34)c2F)cc1 [Example 38, N-(3-(5-(4-chlorophenyl)-1H-pyrrolo[2,3-b]pyridine-3-carbonyl)-2,4-difluoro-phenyl)-1-(p-tolyl)methanesulfonamide]	+ (3 ≤ PoC < 30)	+ (10 ≥ ratio > 3)	–	+ (10 ≥ ratio > 3)	+ (10 ≥ ratio > 3)	70 to 90	–
CCCS(=O)(=O)Nc1cccc(C(=O)c2c[nH]c3ncc(-c4ccc(Cl)cc4)cc23)c1C#N [Example 63, N-(3-(5-(4-chlorophenyl)-1H-pyrrolo[2,3-b]pyridine-3-carbonyl)-2-cyanophenyl)propane-1-sulfonamide]	◯ (30 ≤ PoC)	◯ (3 ≥ Ratio)	–	◯ (3 ≥ Ratio)	◯ (3 ≥ Ratio)	–	50 to 70
CCCS(=O)(=O)Nc1ccc(C#N)c(C(=O)c2c[nH]c3ncc(-c4ccc(Cl)cc4)cc23)c1F [Example 61, N-(3-(5-(4-chlorophenyl)-1H-pyrrolo[2,3-b]pyridine-3-carbonyl)-4-cyano-2-fluorophenyl)propane-1-sulfonamide]	◯ (30 ≤ PoC)	◯ (3 ≥ Ratio)	–	+ (10 ≥ ratio > 3)	+ (10 ≥ ratio > 3)	–	> 90
CCCS(=O)(=O)Nc1ccc(F)c(C(=O)c2c[nH]c3ncc(-c4ccc(F)cc4F)cc23)c1F [Example 33, N-(3-(5N-(2,4-difluorophenyl)-1H-pyrrolo[2,3-b]pyridine-3-carbonyl)-2,4-difluorophenyl)propane-1-sulfonamide]	+ (3 ≤ PoC < 30)	++ (100 ≥ ratio > 10)	–	++ (100 ≥ ratio > 10)	++ (100 ≥ ratio > 10)	–	70 to 90
CCCS(=O)(=O)Nc1ccc(F)c(C(=O)c2c[nH]c3ncc(-c4ccc5ccoc5c4)cc23)c1F [Example 52]	+ (3 ≤ PoC < 30)	◯ (3 ≥ Ratio)	–	++ (100 ≥ ratio > 10)	++ (100 ≥ ratio > 10)	–	70 to 90
